Reference: US9187484B2 (Southern Research Institute, priority 2012, dated 2015)

Biological target: T1, LRRK2 (G2019S) (Homo sapiens, UniProt Q5S007, G2019S)
T1 construct: Recombinant GST-LRRK2 (delta970), purified from baculovirus infected insect cells (SF9); GST (N); host or cells: baculovirus infected insect cells (SF9)
Assay: LRRK2 inhibition, radiometric kinase assay with recombinant GST-LRRK2 (delta970) and peptide substrate
Assay type: biochemical
Conditions: GST-LRRK2 (delta970) G2019S 30 nM, ATP ~52 μM (Km), 30 min at 30° C.
Procedure: Compounds were assessed for inhibition of LRRK2 inhibition using the following procedure.
Recombinant GST-LRRK2 (delta970), purified from baculovirus infected insect cells (SF9), at least 90% pure and either wild-type sequence or bearing the pathogenic G2019S mutation, was combined into a kinase buffer at 30 nM concentration. Kinase buffer consists of 50 mM Tris HCl pH 7.4, 1 mM EDTA, and 50 μM peptide substrate (amino acid sequence […]). Experimental compounds or control (no compound) were added at desired concentrations in DMSO and water, where final concentration of DMSO in kinase reactions was 0.1% for all drug concentrations. Activation buffer that consists of a final concentration in the reactions of 10 mM MgCl2 and ATP (˜92 μM for WT-LRRK2 reactions and ˜52 μM for G2019S-LRRK2, which represent respective Km ATP concentrations) were added to each reaction, in addition to 0.5 μCi of gamma-32-P-dATP per reaction. Reactions were incubated at 1400 RPM at 30° C. for 30 min. and then spotted in triplicate directly onto a slot-blot apparatus fitted with phospho-cellulose paper and allowed to dry. Each slot was then washed with 10 mM phosphoric acid buffer until beta-radiation could not be detected in eluted wash buffer, usually ˜1 mL per slot. Paper within each slot were excised and radiation measured by liquid scintillation.

T1 sequence (Q5S007 970-2527 G2019S limits assumed): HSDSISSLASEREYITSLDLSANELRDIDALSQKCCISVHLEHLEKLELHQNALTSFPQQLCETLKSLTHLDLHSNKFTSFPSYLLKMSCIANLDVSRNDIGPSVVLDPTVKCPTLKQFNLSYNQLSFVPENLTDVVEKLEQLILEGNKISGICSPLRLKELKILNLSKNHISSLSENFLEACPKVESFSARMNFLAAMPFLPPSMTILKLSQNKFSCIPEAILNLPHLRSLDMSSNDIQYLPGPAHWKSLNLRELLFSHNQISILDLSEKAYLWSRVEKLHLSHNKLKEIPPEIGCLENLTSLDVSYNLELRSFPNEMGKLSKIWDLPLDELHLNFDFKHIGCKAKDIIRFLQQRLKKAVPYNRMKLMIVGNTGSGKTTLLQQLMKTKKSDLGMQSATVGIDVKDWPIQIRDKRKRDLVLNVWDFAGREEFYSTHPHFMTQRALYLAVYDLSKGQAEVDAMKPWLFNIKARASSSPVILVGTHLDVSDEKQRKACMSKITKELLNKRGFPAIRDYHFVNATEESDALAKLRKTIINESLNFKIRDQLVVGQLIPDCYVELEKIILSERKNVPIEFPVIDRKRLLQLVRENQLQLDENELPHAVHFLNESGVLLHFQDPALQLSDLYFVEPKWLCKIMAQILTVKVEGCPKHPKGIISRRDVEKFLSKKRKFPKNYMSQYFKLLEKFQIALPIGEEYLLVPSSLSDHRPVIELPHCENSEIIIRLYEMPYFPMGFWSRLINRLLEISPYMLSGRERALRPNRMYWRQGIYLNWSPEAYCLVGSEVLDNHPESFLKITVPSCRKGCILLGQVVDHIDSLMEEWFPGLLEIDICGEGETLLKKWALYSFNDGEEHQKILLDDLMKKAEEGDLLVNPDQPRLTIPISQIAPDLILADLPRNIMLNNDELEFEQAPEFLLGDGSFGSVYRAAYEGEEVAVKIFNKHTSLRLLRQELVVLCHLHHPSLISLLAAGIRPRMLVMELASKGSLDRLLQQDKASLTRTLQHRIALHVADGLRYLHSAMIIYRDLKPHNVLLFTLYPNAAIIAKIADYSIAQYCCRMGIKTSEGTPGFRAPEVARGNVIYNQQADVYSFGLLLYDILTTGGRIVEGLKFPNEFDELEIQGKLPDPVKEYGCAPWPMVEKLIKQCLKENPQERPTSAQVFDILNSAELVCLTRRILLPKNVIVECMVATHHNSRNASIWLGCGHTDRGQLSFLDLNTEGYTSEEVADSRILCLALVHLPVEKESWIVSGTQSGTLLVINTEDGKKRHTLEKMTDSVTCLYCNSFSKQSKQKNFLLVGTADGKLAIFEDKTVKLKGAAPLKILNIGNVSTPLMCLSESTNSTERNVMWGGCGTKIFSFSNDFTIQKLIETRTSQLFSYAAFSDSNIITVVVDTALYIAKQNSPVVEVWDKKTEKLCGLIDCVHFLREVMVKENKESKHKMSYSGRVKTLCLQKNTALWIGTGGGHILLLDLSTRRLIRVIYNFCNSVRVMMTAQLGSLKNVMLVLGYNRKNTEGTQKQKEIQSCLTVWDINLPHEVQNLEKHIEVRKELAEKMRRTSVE

First: CCOC(=O)C(CC)Sc1ccc2nnc(-c3ccc(F)cc3)n2n1 (centres unmarked) [Example 1, ethyl 2-((3-(4-fluorophenyl)-[1,2,4]triazolo[4,3-b]pyridazin-6-yl)thio)butanoate]
Second: CCC(Sc1ccc2nnc(-c3ccc(F)cc3)n2n1)C(=O)O (centres unmarked) [Example 6, 2-((3-(4-fluorophenyl)-[1,2,4]triazolo[4,3-b]pyridazin-6-yl)thio)butanoic acid]
The IC50 of the first is higher: at least 5 µM for the first, 0.1 to 1 µM for the second.

CCOC(=O)CSc1ccc2nnc(-c3ccncc3)n2n1 [Example 2, ethyl 2-((3-(pyridin-4-yl)-[1,2,4]triazolo[4,3-b]pyridazin-6-yl)thio)acetate] and NC(=O)CSc1ccc2nnc(-c3ccncc3)n2n1 [Example 4, 2-((3-(pyridin-4-yl)-[1,2,4]triazolo[4,3-b]pyridazin-6-yl)thio)acetamide] cannot be ordered by IC50: at least 5 µM for the first, at least 5 µM for the second.

First: NC(=O)CSc1ccc2nnc(-c3cccs3)n2n1 [Example 3, 2-((3-(thiophen-2-yl)-[1,2,4]triazolo[4,3-b]pyridazin-6-yl)thio)acetamide]
Second: O=C(O)CSc1ccc2nnc(-c3cccs3)n2n1 [Example 27, 2-((3-(thiophen-2-yl)-[1,2,4]triazolo[4,3-b]pyridazin-6-yl)thio)acetic acid]
The IC50 of the first is lower: 0.1 to 1 µM for the first, at least 5 µM for the second.

Compared with NC(=O)CSc1ccc2nnc(-c3ccsc3)n2n1 [Example 5, 2-((3-(thiophen-3-yl)-[1,2,4]triazolo[4,3-b]pyridazin-6-yl)thio)acetamide], NC(=O)CSc1ccc2nnc(-c3ccc(F)cc3)n2n1 [Example 19, 2-((3-(4-fluorophenyl)-[1,2,4]triazolo[4,3-b]pyridazin-6-yl)thio)acetamide] is higher in IC50: 0.1 to 1 µM for the first, 1 to 5 µM for the second. The first is the more potent here.

CCC(Sc1ccc2nnc(-c3ccc(F)cc3)n2n1)C(=O)Nc1nccs1 (centres unmarked) [Example 7, 2-((3-(4-fluorophenyl)-[1,2,4]triazolo[4,3-b]pyridazin-6-yl)thio)-N-(thiazol-2-yl)butanamide] and O=C(CSc1ccc2nnc(-c3ccc(F)cc3)n2n1)Nc1nccs1 [Example 43, 2-((3-(4-fluorophenyl)-[1,2,4]triazolo[4,3-b]pyridazin-6-yl)thio)-N-(thiazol-2-yl)acetamide] cannot be ordered by IC50: at least 5 µM for the first, at least 5 µM for the second.

First: CCC(Sc1ccc2nnc(-c3ccc(F)cc3)n2n1)C(=O)N1CCCC1 (centres unmarked) [Example 8, 2-((3-(4-fluorophenyl)-[1,2,4]triazolo[4,3-b]pyridazin-6-yl)thio)-1-(pyrrolidin-1-yl)butan-1-one]
Second: CCC(Sc1ccc2nnc(-c3ccc(F)cc3)n2n1)C(=O)N1CCCCC1 (centres unmarked) [Example 9, 2-((3-(4-fluorophenyl)-[1,2,4]triazolo[4,3-b]pyridazin-6-yl)thio)-1-(piperidin-1-yl)butan-1-one]
The IC50 of the first is lower: 0.1 to 1 µM for the first, 1 to 5 µM for the second. The first is the more potent here.

NC(=O)CSc1ccc2nnc(C3CCCCC3)n2n1 [Example 10, 2-((3-cyclohexyl-[1,2,4]triazolo[4,3-b]pyridazin-6-yl)thio)acetamide] and NC(=O)CSc1ccc2nnc(C3CCCC3)n2n1 [Example 15, 2-((3-cyclopentyl-[1,2,4]triazolo[4,3-b]pyridazin-6-yl)thio)acetamide] cannot be ordered by IC50: at least 5 µM for the first, 1 to 5 µM for the second.

O=C(CSc1ccc2nnc(-c3cccs3)n2n1)N1CCCCC1 [Example 11, 1-(piperidin-1-yl)-2-((3-(thiophen-2-yl)-[1,2,4]triazolo[4,3-b]pyridazin-6-yl)thio)ethanone] and O=C(CSc1ccc2nnc(-c3cccs3)n2n1)N1CCCC1 [Example 21, 1-(pyrrolidin-1-yl)-2-((3-(thiophen-2-yl)-[1,2,4]triazolo[4,3-b]pyridazin-6-yl)thio)ethanone] fall in the same range of IC50: 0.1 to 1 µM for the first, 0.1 to 1 µM for the second.

CCC(Sc1ccc2nnc(-c3ccc(F)cc3)n2n1)C(=O)Nc1cnc2ccccc2c1 (centres unmarked) [Example 12] and CCC(Sc1ccc2nnc(-c3ccc(F)cc3)n2n1)C(=O)Nc1ccccc1C(F)(F)F (centres unmarked) [Example 14, 2-((3-(4-fluorophenyl)-[1,2,4]triazolo[4,3-b]pyridazin-6-yl)thio)-N-(2-(trifluoromethyl)phenyl)butanamide] cannot be ordered by IC50: at least 5 µM for the first, at least 5 µM for the second.

Cc1ccc(-c2nnc3ccc(SCC(=O)O)nn23)cc1 [Example 13, 2-((3-(p-tolyl)-[1,2,4]triazolo[4,3-b]pyridazin-6-yl)thio)acetic acid] and O=C(O)CSc1ccc2nnc(-c3ccc(F)cc3)n2n1 [Example 17, 2-((3-(4-fluorophenyl)-[1,2,4]triazolo[4,3-b]pyridazin-6-yl)thio)acetic acid] cannot be ordered by IC50: 1 to 5 µM for the first, at least 5 µM for the second.

First: NC(=O)CSc1ccc2nnc(-c3ccccn3)n2n1 [Example 16, 2-((3-(pyridin-2-yl)-[1,2,4]triazolo[4,3-b]pyridazin-6-yl)thio)acetamide]
Second: NC(=O)CSc1ccc2nnc(-c3ccco3)n2n1 [Example 26, 2-((3-(furan-2-yl)-[1,2,4]triazolo[4,3-b]pyridazin-6-yl)thio)acetamide]
The IC50 of the first is higher: at least 5 µM for the first, 0.1 to 1 µM for the second.

First: CCC(Sc1ccc2nnc(-c3cccs3)n2n1)C(=O)O (centres unmarked) [Example 18, 2-((3-(thiophen-2-yl)-[1,2,4]triazolo[4,3-b]pyridazin-6-yl)thio)butanoic acid]
Second: CCCCC(Sc1ccc2nnc(-c3cccs3)n2n1)C(=O)O (centres unmarked) [Example 41, 2-((3-(thiophen-2-yl)-[1,2,4]triazolo[4,3-b]pyridazin-6-yl)thio)hexanoic acid]
The IC50 of the first is lower: 0.1 to 1 µM for the first, 1 to 5 µM for the second.

First: c1csc(-c2nnc3ccc(N4CCCCC4)nn23)c1 [Example 20, 6-(piperidin-1-yl)-3-(thiophen-2-yl)-[1,2,4]triazolo[4,3-b]pyridazine]
Second: O=C(CSc1ccc2nnc(-c3cccs3)n2n1)N1CCOCC1 [Example 24, 1-morpholino-2-((3-(thiophen-2-yl)-[1,2,4]triazolo[4,3-b]pyridazin-6-yl)thio)ethanone]
The IC50 of the first is higher: at least 5 µM for the first, 0.1 to 1 µM for the second. The second is the more potent here.

Compared with O=C(CSc1ccc2nnc(-c3cccs3)n2n1)Nc1nccs1 [Example 23, N-(thiazol-2-yl)-2-((3-(thiophen-2-yl)-[1,2,4]triazolo[4,3-b]pyridazin-6-yl)thio)acetamide], NC(=O)CSc1ccc2nnc(-c3nccs3)n2n1 [Example 37, 2-((3-(thiazol-2-yl)-[1,2,4]triazolo[4,3-b]pyridazin-6-yl)thio)acetamide] is higher in IC50: 0.1 to 1 µM for the first, at least 5 µM for the second. The first is the more potent here.

Cc1ccc(-c2nnc3ccc(SCC(=O)N4CCCC4)nn23)cc1 [Example 25, 1-(pyrrolidin-1-yl)-2-((3-(p-tolyl)-[1,2,4]triazolo[4,3-b]pyridazin-6-yl)thio)ethanone] and O=C(O)CSc1ccc2nnc(-c3ccco3)n2n1 [Example 28, 2-((3-(furan-2-yl)-[1,2,4]triazolo[4,3-b]pyridazin-6-yl)thio)acetic acid] cannot be ordered by IC50: 1 to 5 µM for the first, at least 5 µM for the second.

NC(=O)CSc1ccc2nnc(-c3cc4ccccc4s3)n2n1 [Example 29, 2-((3-(benzo[b]thiophen-2-yl)-[1,2,4]triazolo[4,3-b]pyridazin-6-yl)thio)acetamide] and O=C(O)CSc1ccc2nnc(-c3cc4ccccc4s3)n2n1 [Example 30, 2-((3-(benzo[b]thiophen-2-yl)-[1,2,4]triazolo[4,3-b]pyridazin-6-yl)thio)acetic acid] cannot be ordered by IC50: at least 5 µM for the first, at least 5 µM for the second.

O=C(O)CSc1ccc2nnc(-c3cc4ccccc4o3)n2n1 [Example 31, 2-((3-(benzofuran-2-yl)-[1,2,4]triazolo[4,3-b]pyridazin-6-yl)thio)acetic acid] and NC(=O)CSc1ccc2nnc(-c3cc4ccccc4o3)n2n1 [Example 32, 2-((3-(benzofuran-2-yl)-[1,2,4]triazolo[4,3-b]pyridazin-6-yl)thio)acetamide] cannot be ordered by IC50: at least 5 µM for the first, at least 5 µM for the second.

First: CCC(Sc1ccc2nnc(-c3nccs3)n2n1)C(=O)O (centres unmarked) [Example 33, 2-((3-(thiazol-2-yl)-[1,2,4]triazolo[4,3-b]pyridazin-6-yl)thio)butanoic acid]
Second: O=C(O)CSc1ccc2nnc(-c3nccs3)n2n1 [Example 42, 2-((3-(thiazol-2-yl)-[1,2,4]triazolo[4,3-b]pyridazin-6-yl)thio)acetic acid]
The IC50 of the first is lower: 0.1 to 1 µM for the first, at least 5 µM for the second.

NC(=O)CSc1ccc2nnc(-c3csc4ccccc34)n2n1 [Example 35, 2-((3-(benzo[b]thiophen-3-yl)-[1,2,4]triazolo[4,3-b]pyridazin-6-yl)thio)acetamide] and O=C(O)CSc1ccc2nnc(-c3csc4ccccc34)n2n1 [Example 38, 2-((3-(benzo[b]thiophen-3-yl)-[1,2,4]triazolo[4,3-b]pyridazin-6-yl)thio)acetic acid] cannot be ordered by IC50: 1 to 5 µM for the first, at least 5 µM for the second.

Compared with CC(Sc1ccc2nnc(-c3cccs3)n2n1)C(=O)O (centres unmarked) [Example 36, 2-((3-(thiophen-2-yl)-[1,2,4]triazolo[4,3-b]pyridazin-6-yl)thio)propanoic acid], Cc1scc(-c2nnc3ccc(SCC(=O)O)nn23)c1-c1ccccc1 [Example 39, 2-((3-(5-methyl-4-phenylthiophen-3-yl)-[1,2,4]triazolo[4,3-b]pyridazin-6-yl)thio)acetic acid] is higher in IC50: 0.1 to 1 µM for the first, at least 5 µM for the second. The first is the more potent here.

Compound Cc1scc(-c2nnc3ccc(SCC(N)=O)nn23)c1-c1ccccc1 [Example 40, 2-((3-(5-methyl-4-phenylthiophen-3-yl)-[1,2,4]triazolo[4,3-b]pyridazin-6-yl)thio)acetamide] has an IC50 of at least 5 µM.
